Reference: article PMC10444810, “Induction of open-form bile canaliculus formation by hepatocytes for evaluation of biliary drug excretion” (Communications Biology, 2023)
Where “and” joins values, the source holds several entries; their conditions need not be identical. Equal entries are not always repeated. Where two headings read alike, the source gives them in different places.

T1: OCT1 (Homo sapiens, UniProt O15245)
T1 sequence (O15245 1-554): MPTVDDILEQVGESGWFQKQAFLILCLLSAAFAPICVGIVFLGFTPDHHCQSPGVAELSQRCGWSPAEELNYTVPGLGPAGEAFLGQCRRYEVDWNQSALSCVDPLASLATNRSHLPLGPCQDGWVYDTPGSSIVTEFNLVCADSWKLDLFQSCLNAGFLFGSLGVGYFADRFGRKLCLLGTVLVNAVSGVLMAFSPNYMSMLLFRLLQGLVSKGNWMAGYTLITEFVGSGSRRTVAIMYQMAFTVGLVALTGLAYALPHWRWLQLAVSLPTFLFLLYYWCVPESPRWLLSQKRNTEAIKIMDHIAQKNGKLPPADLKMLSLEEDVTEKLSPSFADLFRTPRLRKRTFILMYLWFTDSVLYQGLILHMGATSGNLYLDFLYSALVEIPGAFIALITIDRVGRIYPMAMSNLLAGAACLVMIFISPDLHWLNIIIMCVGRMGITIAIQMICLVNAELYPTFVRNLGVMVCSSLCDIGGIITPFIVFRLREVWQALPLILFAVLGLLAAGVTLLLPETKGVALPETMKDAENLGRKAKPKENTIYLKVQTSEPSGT

B1: claudin-2: human claudin-2 protein from E. coli cell-free synthesis, coated on the permeable support (protein, UniProt P57739 1-230, looked up)
Claudin-2: MASLGLQLVGYILGLLGLLGTLVAMLLPSWKTSSYVGASIVTAVGFSKGLWMECATHSTGITQCDIYSTLLGLPADIQAAQAMMVTSSAISSLACIISVVGMRCTVFCQESRAKDRVAVAGGVFFILGGLLGFIPVAWNLHGILRDFYSPLVPDSMKFEIGEALYLGIISSLFSLIAGIILCFSCSSQRNRSNYYDAYQAQPLATRSSPRPGQPPKVKSEFNSYSLTGYV
B2: claudin-3: human claudin-3 protein from E. coli cell-free synthesis, coated on the permeable support (protein, UniProt O15551 1-220, looked up)
Claudin-3: MSMGLEITGTALAVLGWLGTIVCCALPMWRVSAFIGSNIITSQNIWEGLWMNCVVQSTGQMQCKVYDSLLALPQDLQAARALIVVAILLAAFGLLVALVGAQCTNCVQDDTAKAKITIVAGVLFLLAALLTLVPVSWSANTIIRDFYNPVVPEAQKREMGAGLYVGWAAAALQLLGGALLCCSCPPREKKYTATKVVYSAPRSTGPGASLGTGYDRKDYV
B3: claudin-9: human claudin-9 protein from E. coli cell-free synthesis, coated on the permeable support (protein, UniProt O95484 1-217, looked up)
Claudin-9: MASTGLELLGMTLAVLGWLGTLVSCALPLWKVTAFIGNSIVVAQVVWEGLWMSCVVQSTGQMQCKVYDSLLALPQDLQAARALCVIALLLALLGLLVAITGAQCTTCVEDEGAKARIVLTAGVILLLAGILVLIPVCWTAHAIIQDFYNPLVAEALKRELGASLYLGWAAAALLMLGGGLLCCTCPPPQVERPRGPRLGYSIPSRSGASGLDKRDYV

What was measured:
[1] = blood/plasma concentration ratio, cited from earlier work
[2] = system: sandwich-cultured PXB-cells; settings: human, 1 μM
[3] = Reported human in vivo biliary excretion clearance and intrinsic clearance estimated from it (Eq. 4)
[4] = icHep permeation assay (sinusoidal to bile side) to estimate drug biliary excretion clearance; settings: human
[5] = human, cited from earlier work
[6] = cited from earlier work
OCT1 = target: T1, OCT1; settings: for Uptake / CLuptake: single wells; for CLuptake, Mean: mean of wells
[7] = system: primary human hepatocytes / PXB-cells; assay: Counting hepatocyte bile canaliculi opening to the culture equipment (hemi-lumen formation rate); assay type: cell-based; settings: for hemi-lumen formation rate: PXB-cells (donor), supports individually coated with each claudin; for Open bile canalicular formation rate (%) Mean / Open bile canalicular formation rate (%): icHep (JFC), claudin coating; for Open bile canalicular formation rate (%) Mean: mean of 3; for Open bile canalicular formation rate (%): single replicate
Procedure: Transwell^TM permeable support used was coated with 50 μg/ml rat tail collagen I (Corning) in 0.02 N acetic acid at room temperature for 1 h. Transwell^TM was washed twice with PBS, then the in vitro-synthesised claudin-1, -2, -3, and -9 proteins were applied to Transwell^TM at a density of 750 ng/cm^2 each and incubated at room temperature for 1 h. Transwell^TM was washed twice with PBS before seeding cells. Cryopreserved human hepatocytes (Donor ID. HU1663) were purchased from Thermo Fisher Scientific and thawed using CHRM. The hepatocytes were then diluted with WEM containing CM3000. PXB-cells (Donor ID. JFC, and HUM181001B) were obtained from PhoenixBio (Hiroshima, Japan) as described previously. […] PXB-cells were resuspended in 2% DMSO-supplemented hepatocyte growth medium (d-HCGM)[27]. Cryopreserved human hepatocytes and PXB-cells were seeded at a density of 2.1 × 10^5 cells/cm^2 in the protein-coated culture equipment. After 4 h of incubation, the culture medium was replaced with fresh culture medium to remove the unattached cells. After 24 h of incubation, the cells were cultured in d-HCGM supplemented with 250 μg/ml Matrigel. The spent medium was replaced with fresh medium every 3 days. Donor information for the human hepatocytes used is listed in Supplementary Table 2.
To count the open- and closed-type bile canaliculi, MRP2 immunostaining was performed using the Z-stack function of a confocal microscope (LSM710; Carl Zeiss, Oberkochen, Germany). Immunostaining was performed as previously described. The ratio of open-type bile canaliculi to the total number of bile canaliculi was calculated according to Eq. (1), and the value obtained was evaluated as the induction rate of open-type bile canaliculi. Here, Aopen bile canaliculi and Abile canaliculi indicate the number of open-type bile canaliculi and total number of bile canaliculi, respectively.1 Formationrate%=Aopenbilecanaliculi/Abilecanaliculi×100

[8] = estimated from observed CLbile with fp, Rb, Qh 1400 ml/min
[9] = estimated from observed in vivo CLbile with fp, Rb and Qh 1400 ml/min
[10] = Biliary excretion clearance, in vitro, observed, CLbile, int, icHep (HUM181001B), CLbile,app of icHep minus control cells
[11] = reported in vivo biliary excretion clearance
[12] = unbound fraction of the plasma protein
[13] = unbound fraction, reported value

Molecule | Rb ([1]; reported value) | Rb [1] | Predicted in vivo CLbile, int, Mean ([2]; 2 min) [mL/min] | BEI (%) Mean ([2]; 5 min) [%] | Predicted in vivo CLbile, int, Mean ([2]; 5 min) [mL/min] | BEI (%) Mean ([2]; 10 min) [%] | Predicted in vivo CLbile, int, Mean ([2]; 10 min) [mL/min] | Predicted in vivo CLbile, int, Mean ([2]; 20 min) [mL/min] | Observed in vivo CLbile, int [3, 8] [mL/min] | Observed in vivo CLbile, int [3, 9] [mL/min] | hepatocyte CLint at 1 μM [4] [µL/min/1e6 cells] | hepatocyte CLint at 1 μM [4, 10] [µL/min/1e6 cells] | Observed in vivo CLbile [5, 11] [mL/min] | Observed in vivo CLbile ([5]; reported value) [mL/min] | fp, unbound fraction of the plasma protein ([6]; reported value) | fp [6, 12] | fp [6, 13] | hemi-lumen formation rate [7] [%] | Open bile canalicular formation rate (%) Mean [7] [%] | Open bile canalicular formation rate (%) [7] | other results
CN/C(=N/CCSCc1nc[nH]c1C)NC#N [Cimetidine, cimetidine] | 0.97 | 0.97 | 2714 | 32.5 | 478 | 19.7 | 126 | 60.3 | 12.3 | 12.3 | 0.869 ± 0.0152 | 0.453 ± 0.163 | 9.9 | 9.9 | 0.81[32] | 0.81 | 0.81 |  |  |  | BEI (%) Mean ([2]; 2 min): 48.1%; BEI (%) Mean ([2]; 20 min): 19.6%
CC[C@]1(O)C[C@H]2CN(CCc3c([nH]c4ccccc34)[C@@](C(=O)OC)(c3cc4c(cc3OC)N(C=O)[C@H]3[C@@](O)(C(=O)OC)[C@H](OC(C)=O)[C@]5(CC)C=CCN6CC[C@]43[C@@H]65)C2)C1 [Vincristine, vincristine] | 1.2 | 1.2 | 329 | 16.5 | 199 | 26.3 | 190 | 168 | 25.5 | 25.5 | 0.173 ± 0.052 | 0.128 ± 0.0438 | 12.9 | 12.9 | 0.51[47] | 0.51 | 0.51 |  |  |  | BEI (%) Mean ([2]; 2 min): 11.7%; BEI (%) Mean ([2]; 20 min): 40.4%
CN(Cc1cnc2nc(N)nc(N)c2n1)c1ccc(C(=O)N[C@@H](CCC(=O)O)C(=O)O)cc1 [Methotrexate, methotrexate] | 0.79 | 0.79 | 700 | 14.8 | 179 | 18.9 | 126 | 172 | 90.0 | 90.0 | 1.11 ± 0.217 | 0.73 ± 0.268 | 39.9 | 39.9 | 0.46[40] | 0.46 | 0.46 |  |  |  | 
CN(C)C(=N)N=C(N)N [Metformin] |  |  |  |  |  |  |  |  |  |  |  |  |  |  |  |  |  |  |  |  | Uptake (OCT1; icHep (HUM181001B), incubation time 0.5 min): 2.903 ul/106 cells and 3.372 ul/106 cells and 2.496 ul/106 cells and 3.301 ul/106 cells; Uptake (OCT1; icHep (HUM181001B), incubation time 1 min): 5.838 ul/106 cells and 5.176 ul/106 cells and 6.237 ul/106 cells and 6.072 ul/106 cells; Uptake (OCT1; icHep (HUM181001B), incubation time 2 min): 12.5578 ul/106 cells and 11.8508 ul/106 cells and 13.1191 ul/106 cells and 15.8618 ul/106 cells; Uptake (OCT1; icHep (HUM181001B), incubation time 5 min): 32.1771 ul/106 cells and 34.4238 ul/106 cells and 29.3661 ul/106 cells and 33.2229 ul/106 cells; CLuptake, Mean (OCT1; icHep (HUM181001B)): 7.52 ul/min/106 cells; CLuptake (OCT1; icHep (HUM181001B)): 6.72 ul/min/106 cells and 6.68 ul/min/106 cells and 6.88 ul/min/106 cells and 9.79 ul/min/106 cells; Uptake (OCT1; icHep (JFC), incubation time 0.5 min): 3.7065 ul/106 cells and 4.783 ul/106 cells and 4.1818 ul/106 cells and 4.442 ul/106 cells; Uptake (OCT1; icHep (JFC), incubation time 1 min): 7.468 ul/106 cells and 9.292 ul/106 cells and 7.7376 ul/106 cells and 10.2512 ul/106 cells; Uptake (OCT1; icHep (JFC), incubation time 2 min): 17.213 ul/106 cells and 18.5255 ul/106 cells and 16.0946 ul/106 cells and 17.048 ul/106 cells; Uptake (OCT1; icHep (JFC), incubation time 5 min): 50.6594 ul/106 cells and 43.7801 ul/106 cells and 38.495 ul/106 cells and 43.9119 ul/106 cells; CLuptake, Mean (OCT1; icHep (JFC)): 8.82 ul/min/106 cells; CLuptake (OCT1; icHep (JFC)): 7.5 ul/min/106 cells and 9.0 ul/min/106 cells and 7.1 ul/min/106 cells and 11.6 ul/min/106 cells
B1 |  |  |  |  |  |  |  |  |  |  |  |  |  |  |  |  |  | 48.9 ± 12 | 48.9 | 36.6% and 60.0% and 50.0% | 
B2 |  |  |  |  |  |  |  |  |  |  |  |  |  |  |  |  |  | 38.6 ± 8.1 | 38.6 | 34.6% and 33.3% and 48.0% | 
B3 |  |  |  |  |  |  |  |  |  |  |  |  |  |  |  |  |  | 35.9 ± 6.4 | 35.9 | 30.3% and 42.9% and 34.5% | 
